Source: article PMC4660513 (Pharmacognosy Research, 2015)
Where “and” joins values, the source holds several entries; their conditions need not be identical. Equal entries are not always repeated. Structures can show the parent of a compound that is named as a salt. Where two headings read alike, the source gives them in different places.

Legend:
[1] = tested on: human UGT2B7; conditions: read-out: Km for 4-MU glucuronidation by human UGT2B7 isoform; cited from earlier work
[2] = tested on: UGT (4-MU glucuronidation); experiment: 4-MU glucuronidation inhibition assay in rat liver microsomes; format: in vitro ADME; conditions: rat, rat liver microsomes, pH 7.4, probe 4-methylumbelliferone (4-MU), 100 μM
[3] = target: T1, recombinant human UGT1A1 (Homo sapiens, UniProt P22309); experiment: 4-MU glucuronidation inhibition assay with recombinant human UGT1A1 isoform; format: in vitro ADME
T1 sequence (P22309 26-533): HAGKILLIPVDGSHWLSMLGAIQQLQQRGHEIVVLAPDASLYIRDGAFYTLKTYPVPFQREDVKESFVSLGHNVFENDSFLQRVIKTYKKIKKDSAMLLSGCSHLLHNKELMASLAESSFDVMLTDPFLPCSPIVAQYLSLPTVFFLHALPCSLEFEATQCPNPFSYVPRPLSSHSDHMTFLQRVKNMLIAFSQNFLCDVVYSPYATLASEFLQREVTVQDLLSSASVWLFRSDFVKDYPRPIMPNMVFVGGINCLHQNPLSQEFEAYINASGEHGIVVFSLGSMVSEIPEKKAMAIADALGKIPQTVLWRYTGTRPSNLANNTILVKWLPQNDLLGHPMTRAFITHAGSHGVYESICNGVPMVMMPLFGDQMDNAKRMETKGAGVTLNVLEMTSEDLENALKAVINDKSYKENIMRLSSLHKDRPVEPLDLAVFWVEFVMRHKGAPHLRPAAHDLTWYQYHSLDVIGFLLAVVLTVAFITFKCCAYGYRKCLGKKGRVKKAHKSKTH

[4] = cited from earlier work
[5] = target: T2, recombinant human UGT2B7 (Homo sapiens, UniProt P16662); experiment: 4-MU glucuronidation inhibition assay with recombinant human UGT2B7 isoform; format: in vitro ADME
T2 sequence (P16662 24-529): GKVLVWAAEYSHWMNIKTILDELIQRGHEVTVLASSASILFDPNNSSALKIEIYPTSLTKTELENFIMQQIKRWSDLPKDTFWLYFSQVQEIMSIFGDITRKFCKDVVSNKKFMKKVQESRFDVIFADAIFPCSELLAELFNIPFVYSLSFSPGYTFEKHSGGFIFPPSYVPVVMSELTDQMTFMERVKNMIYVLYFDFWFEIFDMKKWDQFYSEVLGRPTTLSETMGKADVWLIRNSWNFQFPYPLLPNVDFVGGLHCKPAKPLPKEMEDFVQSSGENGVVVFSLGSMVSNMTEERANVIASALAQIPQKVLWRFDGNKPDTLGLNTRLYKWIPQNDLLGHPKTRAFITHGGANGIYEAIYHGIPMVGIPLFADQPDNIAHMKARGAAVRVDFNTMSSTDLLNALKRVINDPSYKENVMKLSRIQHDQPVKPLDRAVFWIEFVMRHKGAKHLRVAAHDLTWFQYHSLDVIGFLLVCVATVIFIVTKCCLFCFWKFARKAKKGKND

[6] = tested on: UGT (s); conditions: cited from earlier work
[7] = tested on: human UGT1A1; conditions: previous report; cited from earlier work
[8] = tested on: human UGT2B7; conditions: read-out: estimated IC50, human UGT2B7; previous study; cited from earlier work
[9] = tested on: human UGT2B15; conditions: read-out: estimated IC50, human UGT2B15; previous study; cited from earlier work
[10] = tested on: human liver microsomes; experiment: 4-MU glucuronidation inhibition assay in human liver microsomes; format: in vitro ADME; conditions: comparison of IC50 values
[11] = tested on: rat liver microsomes; experiment: 4-MU glucuronidation inhibition assay in rat liver microsomes; format: in vitro ADME
[12] = tested on: human UGT2B7; conditions: read-out: Km for buprenorphine glucuronidation by human UGT2B7 isoform; cited from earlier work
[13] = tested on: UGT1A1; conditions: except at highly extraordinary concentrations; cited from earlier work

Molecule: Cc1cc(=O)oc2cc(O)ccc12 [4-MU, 4-methylumbelliferone]
- Km [1]: 335 µM

Molecule: O=C(O)Cc1ccccc1Nc1c(Cl)cccc1Cl [Diclofenac, diclofenac]
- IC50 at 30 min [2]: 21.1 ± 1.32 µM
- IC50 [3]: 2.34 ± 1.28 µM

Molecule: CNC1(c2ccccc2Cl)CCCCC1=O (centres unmarked) [Ketamine, Ketamine hydrochloride]
- ketamine concentration after low-dose administration ([4]; 0.125–0.250 mg/kg intravenous): > 0.42 μM and > 100 μg/l
- mean plasma concentration during steady-state anesthesia ([4]; induction 2 mg/kg, maintenance approx. 40 μg/kg/min): 9.3 µM
- IC50 [5]: 27.3 ± 1.18 µM
- IC50 at 30 min [2]: 6.21 ± 1.51 µM
- manner of inhibition of morphine-3-glucuronide formation [6]: non-competitive
- inhibitory effect on 4-MU glucuronidation in human UGT1A1 isoform [7]: weak inhibitory effect
- IC50 [8]: 55 µM
- IC50 [9]: 95 µM
- IC50 [3]: > 1000 µM

Molecule: buprenorphine hydrochloride
- potency relative to diclofenac (more potent) [10]: about 13 orders of magnitude
- potency relative to diclofenac ([11]; rat liver microsomes, comparison of IC50 values): about three orders of magnitude less potent than diclofenac
- IC50 ([11]; read-out: IC50 on 4-MUG formation, rat liver microsomes): 73.2 ± 1.63 µM
- Km [12]: 20.9 µM
- inhibitory effect on bilirubin glucuronidation catalyzed by UGT1A1 [13]: no significant inhibitory effect
